According to article PMC9482650, “Quantitative fragmentomics allow affinity mapping of interactomes” (Nature Communications, 2022):
Like-named read-outs stand apart in the source and are kept apart here. Numbered stars: 1 amine (or outer) side, 2 acyl side, 3 side chain; on linkers, the order of the positions; unused ones are H or OH. Ends that are not written are not given here. Peptide text beside a SMILES is read from it. * marks the point of attachment. X1 = O=C(CCCC[C@@H]1SC[C@@H]2NC(=O)N[C@@H]21)NCCCOCCOCCOCCCN*; Suc = O=C(CCC(=O)[*:2])[*:1]

Tests used:
SYNJ2BP PDZ = biological target: T1, SYNJ2BP PDZ (Homo sapiens, UniProt P57105); assay: Holdup assay; assay type: binding
T1 sequence (P57105 13-100 limits assumed): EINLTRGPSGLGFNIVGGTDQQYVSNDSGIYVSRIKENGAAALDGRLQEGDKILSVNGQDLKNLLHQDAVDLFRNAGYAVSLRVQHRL

SCRIB_1 PDZ = SCRIB_1 PDZ (Homo sapiens, UniProt Q14160); assay: Holdup assay; assay type: binding
Sequence of SCRIB_1 PDZ (Q14160 728-815 limits assumed): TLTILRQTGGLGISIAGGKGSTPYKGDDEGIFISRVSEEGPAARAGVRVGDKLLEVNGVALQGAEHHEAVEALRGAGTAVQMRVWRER

DLG1_1 PDZ = DLG1_1 PDZ (Homo sapiens, UniProt Q12959); assay: Holdup assay; assay type: binding
DLG1_2 PDZ = DLG1_2 PDZ (Homo sapiens, UniProt Q12959); assay: Holdup assay; assay type: binding
SCRIB2 PDZ = biological target: T2, SCRIB2 PDZ (Homo sapiens, UniProt Q14160); assay: Holdup assay; assay type: binding
T2 sequence (Q14160 862-950 limits assumed): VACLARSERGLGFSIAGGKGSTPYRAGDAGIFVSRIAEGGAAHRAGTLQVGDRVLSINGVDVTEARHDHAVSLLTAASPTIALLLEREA

TX1BP3 PDZ = biological target: T3, TX1BP3 PDZ (Homo sapiens, UniProt O14907); assay: Holdup assay; assay type: binding
T3 sequence (O14907 15-112 limits assumed): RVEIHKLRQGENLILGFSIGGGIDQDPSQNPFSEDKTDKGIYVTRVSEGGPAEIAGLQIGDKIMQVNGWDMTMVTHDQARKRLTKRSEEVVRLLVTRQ

SNX27 PDZ = SNX27 PDZ (Homo sapiens, UniProt Q96L92); assay: Holdup assay; assay type: binding
MAGI2_2 PDZ = MAGI2_2 PDZ (Homo sapiens, UniProt Q86UL8); assay: Competitive fluorescence polarization (FP) assay; assay type: binding; conditions: read-out: pKd FP (converted)
Sequence of MAGI2_2 PDZ (Q86UL8 426-510 limits assumed): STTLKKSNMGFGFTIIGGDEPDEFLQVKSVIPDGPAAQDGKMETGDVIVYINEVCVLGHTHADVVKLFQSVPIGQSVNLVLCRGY

DLG4_3 PDZ = DLG4_3 PDZ (Homo sapiens, UniProt P78352); assay: Competitive fluorescence polarization (FP) assay; assay type: binding; conditions: read-out: pKd FP (converted)
Sequence of DLG4_3 PDZ (P78352 313-393 limits assumed): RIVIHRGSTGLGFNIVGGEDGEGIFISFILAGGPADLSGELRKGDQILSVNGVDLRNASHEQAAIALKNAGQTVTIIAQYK

HeLa cell extract preys = assay: PDZ-AP-MS, biotinylated MBP-PDZ baits; assay type: binding, human; conditions: for Ratio: fold enrichment of prey; for Difference: log2 enrichment of prey
Protocol: (§1) For PDZ-AP-MS experiments, PDZ domains were cloned as His6-AviTag-MBP-PDZ constructs. For co-expression with BirA, E. coli BL21(DE3) cells were co-transformed with His6-AviTag-MBP, or His6-AviTag-MBP-PDZ-coding and PET21a-BirA (Addgene #20857) plasmids. Simultaneously to IPTG induction, 50 µM biotin was added to the media. After cell harvesting, the lysis buffer was also supplemented with 50 µM biotin. Otherwise, expression and double affinity purification was identical as previously described in details.
(§2) For PBM-AP-MS experiments, 30 μl streptavidin resin was mixed with biotin or peptide at 50–60 μM concentration in 6–6.5 resin volume for 60 min to achieve resin saturation. For PDZ-AP-MS experiments, 30 μl streptavidin resin was mixed with biotinylated MBP or MBP-PDZ at 40-50 μM concentration in >1000× resin volume for 60 min to achieve resin saturation. After saturation, resins were washed a single time (ten resin volume, holdup buffer), and were depleted with biotin (1 mM biotin, 5–10 resin volume, 10 min). Finally, resins were washed two times. 0.5 ml 2 mg/ml cell lysate was added to the dry resin (1 mg total input) and were incubated at 4 °C for 2 h. Then, the beads were washed three times with 10 resin volume buffer containing: 50 mM TRIS pH 8.5, 150 mM NaCl, 1% TritonX-100, 10× complete EDTA-free protease inhibitor cocktail, 2 mM EDTA, 1 mM TCEP. Then, the beads were washed two times with ten resin volume buffer containing: 50 mM TRIS pH 8.5, 150 mM NaCl, 1 mM TCEP. Finally, captured protein was eluted from the resin in two steps and the eluted fractions were pooled. For each elution the beads were incubated for 30 min with three resin volume buffer containing: 20 mM TRIS pH8.5, 100 mM NaCl, 500 μM TCEP, 8 M Urea. Between each step, the beads were separated by mild centrifugation and the supernatant was removed by gentle pipetting.
(§3) The samples were precipitated with TCA 20% overnight at 4 °C and centrifuged at 14,000 rpm for 10 min at 4 °C. The protein pellets were washed twice with 1 mL cold acetone and air dried. The protein extracts were solubilized in urea 8 M, reduced with 5 mM TCEP for 30 min, and alkylated with 10 mM iodoacetamide for 30 min in the dark. Double digestion was performed at 37 °C with 500 ng endoproteinase Lys-C for 4 h, followed by fourfold dilution and an overnight digestion with 500 ng trypsin. Peptide mixtures were then desalted on C18 spin-column and dried on Speed-Vacuum.
(§4) Samples were analyzed using an Ultimate 3000 nano-RSLC (Thermo Scientific, San Jose California) coupled in line with a LTQ-Orbitrap ELITE mass spectrometer via a nano-electrospray ionization source (Thermo Scientific, San Jose California). Peptide mixtures were injected in 0.1% TFA on a C18 Acclaim PepMap100 trap-column (75 µm ID × 2 cm, 3 µm, 100 Å, Thermo Fisher Scientific) for 3 min at 5 µL/min with 2% ACN, 0.1% FA in H2O and then separated on a C18 Accucore nano-column (75 µm ID × 50 cm, 2.6 µm, 150 Å, Thermo Fisher Scientific) at 220 nl/min and 38 °C with a 90 min linear gradient from 5% to 30% buffer B (A: 0.1% FA in H2O/B: 99% ACN, 0.1% FA in H2O), regeneration at 5% B. The mass spectrometer was operated in positive ionization mode, in data-dependent mode with survey scans from m/z 350–1500 acquired in the Orbitrap at a resolution of 120,000 at m/z 400. The 20 most intense peaks from survey scans were selected for further fragmentation in the Linear Ion Trap with an isolation window of 2.0 Da and were fragmented by CID with normalized collision energy of 35%. (TOP20CID method) Unassigned and single charged states were excluded from fragmentation. The Ion Target Value for the survey scans (in the Orbitrap) and the MS2 mode (in the Linear Ion Trap) were set to 1E6 and 5E3 respectively and the maximum injection time was set to 100 ms for both scan modes. Dynamic exclusion was set to 20 s after one repeat count with mass width at ±10 ppm. […]

HaCat cell extract preys = assay: PDZ-AP-MS, biotinylated MBP-PDZ baits; assay type: binding, human; conditions: for Difference log2: enrichment of prey
Protocol: as §1, §2, §3, §4

[1] = tested on: Jurkat cell extract preys; assay: PDZ-AP-MS, biotinylated MBP-PDZ baits; assay type: binding, human; conditions: for Difference log2: enrichment of prey
Protocol: as §1, §2, §3, §4

[2] = PBM motif of the named protein vs SCRIB_1 PDZ, read-out: pKd values – domain-motif, SCRIB_1 (converted)
[3] = PBM motif of the named protein vs DLG1_1 PDZ, read-out: pKd values – domain-motif, DLG1_1 (converted)
[4] = PBM motif of the named protein vs DLG1_2 PDZ, read-out: pKd values – domain-motif, DLG1_2 (converted)
[5] = PBM motif of the named protein vs SCRIB_2 PDZ, read-out: pKd values – domain-motif, SCRIB_2 (converted)
[6] = PBM motif of the named protein vs TX1BP3 PDZ, read-out: pKd values – domain-motif, TX1BP3 (converted)
[7] = holdup affinity of the PBM peptide of the named protein, sheet PBMcomplexome, lower sub-table, 3.5 appears to be the floor for no detectable binding, read-out: affinity of PBM to DLG1_2 (pKd) (converted)
[8] = holdup affinity of the PBM peptide of the named protein, sheet PBMcomplexome, lower sub-table, 3.5 appears to be the floor for no detectable binding, read-out: affinity of PBM to TX1BP3 (pKd) (converted)
[9] = holdup affinity of the PBM peptide of the named protein, sheet PBMcomplexome, lower sub-table
[10] = bait SCRIB_2 PDZ, fold change of prey
[11] = bait SCRIB_1 PDZ, fold change of prey

QRQARSETLV [HPV59E6]
Kd (SYNJ2BP PDZ): 15.4 µM

ATKDKKITTV [EXOC4]
Kd (SCRIB_1 PDZ; [2]): 141 µM
Kd (DLG1_1 PDZ; [3]): 8.91 µM
Kd (DLG1_2 PDZ; [4]): 1.23 µM
Kd (SCRIB2 PDZ; [5]): 324 µM
Kd (TX1BP3 PDZ; [6]): 123 µM
Kd (SNX27 PDZ): 41.7 µM

CC(C)C[C@H](NC(=O)[C@H](CCC(N)=O)NC(=O)[C@@H](NC(=O)[C@H](CCC(=O)O)NC(=O)[C@H](CCC(=O)O)NC(=O)[C@H](CCCNC(=N)N)NC(=O)[C@H](CO)NC(=O)[C@H](CC(=O)O)NC(=O)[C@H](CCC(N)=O)NC(=O)CNC(=O)CCC(=O)NCCCOCCOCCOCCCNC(=O)CCCC[C@@H]1SC[C@@H]2NC(=O)N[C@@H]21)[C@@H](C)O)C(=O)O [KCNT2] ({X1-Suc}-GQDSREETQL-OH)
Kd (MAGI2_2 PDZ): 248 µM
Kd (DLG4_3 PDZ): 241 µM

GFGEERESIL [KIDINS220]
Kd (DLG1_2 PDZ; [7]): 132 µM
Kd (TX1BP3 PDZ; [8]): 186 µM
Kd (SNX27 PDZ; [9]): 2.57 µM

TVASEKESVM [SLC1A5]
Kd (SCRIB_1 PDZ; [2]): 6.31 µM
Kd (TX1BP3 PDZ; [6]): 204 µM
Kd (SNX27 PDZ): 5.13 µM

VKPQVSESKL [ACOT8]
Kd (SCRIB_1 PDZ; [2]): 47.9 µM
Kd (SCRIB2 PDZ; [5]): 302 µM
Kd (SNX27 PDZ): 4.57 µM

SEKHFRETEV [HTLV1 Tax1]
Kd (SYNJ2BP PDZ): 0.912 µM

QPRTWLQSPV [RTKN]
Kd (SCRIB_1 PDZ; [2]): 204 µM
Kd (DLG1_1 PDZ; [3]): 182 µM
Kd (DLG1_2 PDZ; [4]): 50.1 µM
Kd (TX1BP3 PDZ; [6]): 0.891 µM
Kd (SNX27 PDZ): 49 µM

IDNDTESTAL [ARHGAP17]
Kd (SCRIB_1 PDZ; [2]): 12.3 µM
Kd (SCRIB2 PDZ; [5]): 245 µM
Kd (SNX27 PDZ): 10.7 µM

KKYVDAETSL [SLC4A7]
Kd (SCRIB_1 PDZ; [2]): 2.88 µM
Kd (DLG1_2 PDZ; [4]): 275 µM
Kd (SCRIB2 PDZ; [5]): 170 µM
Kd (TX1BP3 PDZ; [6]): 151 µM
Kd (SNX27 PDZ): 1.95 µM

LSEFKAMDSI [CTNNA1]
Kd (TX1BP3 PDZ; [6]): 339 µM

EKQAKGDTEF [CACYBP]
Kd (SNX27 PDZ): 209 µM

PLEC
Ratio (HeLa cell extract preys; bait TX1BP3 PDZ vs MBP control): 24.4238
Difference (HeLa cell extract preys; bait TX1BP3 PDZ vs MBP control): 4.61

EPRS1
Difference log2 (HaCat cell extract preys; bait SCRIB_2 PDZ vs MBP): 4.198
Ratio SCRIB_2/MBP (HaCat cell extract preys; [10]): 18.3552

IQREDQETAV [DGKZ]
Kd (SCRIB_1 PDZ; holdup affinity of the PBM peptide of the named protein, sheet PBMcomplexome, lower sub-table, 3.5 appears to be the floor for no detectable binding, read-out: affinity of PBM to SCRIB_1 (pKd) (converted)): 19.5 µM
Kd (DLG1_1 PDZ; holdup affinity of the PBM peptide of the named protein, sheet PBMcomplexome, lower sub-table, 3.5 appears to be the floor for no detectable binding, read-out: affinity of PBM to DLG1_1 (pKd) (converted)): 18.6 µM
Kd (DLG1_2 PDZ; [7]): 6.92 µM
Kd (SCRIB2 PDZ; holdup affinity of the PBM peptide of the named protein, sheet PBMcomplexome, lower sub-table, 3.5 appears to be the floor for no detectable binding, read-out: affinity of PBM to SCRIB_2 (pKd) (converted)): 13.8 µM
Kd (TX1BP3 PDZ; [8]): 66.1 µM
Kd (SNX27 PDZ; [9]): 1 µM

SRPHTNETSL [MCC]
Kd (SCRIB_1 PDZ; [2]): 5.5 µM
Kd (DLG1_1 PDZ; [3]): 191 µM
Kd (DLG1_2 PDZ; [4]): 64.6 µM
Kd (SCRIB2 PDZ; [5]): 52.5 µM
Kd (TX1BP3 PDZ; [6]): 75.9 µM
Kd (SNX27 PDZ): 1.91 µM

SCRIB
Difference log2 ([1]; bait SCRIB_1 PDZ vs MBP): 8.3787
Ratio SCRIB_1/MBP [1, 11]: 332.843
Difference log2 ([1]; bait SCRIB_2 PDZ vs MBP): 8.333
Ratio SCRIB_2/MBP [1, 10]: 322.542
Difference (HeLa cell extract preys; bait SCRIB_2 PDZ (biotinylated MBP-PDZ) vs MBP control): 6.449
Ratio (HeLa cell extract preys; bait SCRIB_2 PDZ vs MBP control): 87.3698
Difference log2 (HaCat cell extract preys; bait SCRIB_1 PDZ vs MBP): 13.0145
Ratio SCRIB_1/MBP (HaCat cell extract preys; [11]): 8274.77
